Experimental data as given in patent US6423716B1, “Nitrogenous heterocyclic compounds” (Kyowa Hakko Kogyo Co., Ltd., priority 1998, dated 2002).

How the values were obtained:
[1] = target: T1, human β-PDGF receptor (Homo sapiens, UniProt P09619); assay: PDGF receptor phosphorylation inhibition test; format: cell-based; conditions: for inhibition at 10 µM: CHO cells expressing human β-PDGF receptor, test compound at 10 μM; for IC50: CHO cells expressing human β-PDGF receptor cDNA, concentration inhibiting 50% of PDGF receptor phosphorylation
T1 construct: expressed in transfected cells; host or cells: Chinese hamster ovary (CHO) cells
T1 sequence (P09619 33-1106): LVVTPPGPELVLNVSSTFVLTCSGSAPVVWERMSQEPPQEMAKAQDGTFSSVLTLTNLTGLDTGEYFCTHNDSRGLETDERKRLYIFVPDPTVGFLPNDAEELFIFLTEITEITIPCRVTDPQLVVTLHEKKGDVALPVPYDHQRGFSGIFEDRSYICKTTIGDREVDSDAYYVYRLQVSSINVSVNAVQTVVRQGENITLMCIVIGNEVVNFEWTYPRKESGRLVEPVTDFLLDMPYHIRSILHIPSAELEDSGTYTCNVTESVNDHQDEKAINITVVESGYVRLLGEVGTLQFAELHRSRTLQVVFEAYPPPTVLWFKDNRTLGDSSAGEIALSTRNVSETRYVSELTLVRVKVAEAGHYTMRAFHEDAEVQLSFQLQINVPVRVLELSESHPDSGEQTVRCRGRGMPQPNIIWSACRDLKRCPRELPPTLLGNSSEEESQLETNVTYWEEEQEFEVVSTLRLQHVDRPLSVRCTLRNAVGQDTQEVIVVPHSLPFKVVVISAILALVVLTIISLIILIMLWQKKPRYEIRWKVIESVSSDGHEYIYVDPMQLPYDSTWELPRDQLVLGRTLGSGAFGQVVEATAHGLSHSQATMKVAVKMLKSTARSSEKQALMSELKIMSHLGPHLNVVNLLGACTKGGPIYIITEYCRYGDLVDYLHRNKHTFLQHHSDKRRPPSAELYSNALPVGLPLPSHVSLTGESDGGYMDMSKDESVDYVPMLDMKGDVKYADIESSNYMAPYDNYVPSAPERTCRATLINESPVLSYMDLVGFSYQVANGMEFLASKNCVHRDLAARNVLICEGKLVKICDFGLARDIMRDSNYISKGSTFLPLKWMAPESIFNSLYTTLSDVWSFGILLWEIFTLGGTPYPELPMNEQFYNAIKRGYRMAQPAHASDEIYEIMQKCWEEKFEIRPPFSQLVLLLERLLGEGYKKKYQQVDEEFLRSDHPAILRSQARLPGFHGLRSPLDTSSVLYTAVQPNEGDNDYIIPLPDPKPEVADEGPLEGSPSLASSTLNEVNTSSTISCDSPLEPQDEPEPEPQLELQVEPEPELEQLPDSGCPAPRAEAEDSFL
Method: PDGF Receptor Phosphorylation Inhibition Test
This test was carried out according to the process disclosed in a literature [J. Biol. Chem., 266: 413-418 (1991)]. In this case, Chinese hamster ovary (CHO) cells to which human β-PDGF receptor cDNA had been inserted and in which it had been expressed were used in the test.

melting point | SMILES | further results
248 to 250 °C | Cc1nn(C)c2ncc(C(N)=O)c(N3CCN(C(=O)Nc4ccc(Oc5ccccc5)cc4)CC3)c12 [Compound 12, 4-(5-Carbamoyl-1,3-dimethyl-4-1H-pyrazolo[3,4-b]pyridyl)-N-(4-phenoxyphenyl)-1-piperazinecarboxamide] | –
242 to 245 °C | Nc1nc(N2CCN(C(=S)NCc3ccccc3)CC2)c2[nH]cnc2n1 [Compound 7, 4-(2-Amino-6-purinyl)-N-benzyl-1-piperazinethiocarboxamide] | –
104 to 106 °C | O=C(Nc1ccc(Oc2ccccc2)cc1)N1CCN(c2ncnc3ncccc23)CC1 [Compound 20, N-(4-Phenoxyphenyl)-4-(4-pyrido[2,3-d]pyrimidinyl)-1-piperazinecarboxamide] | –
255 to 260 °C | S=C(NCc1ccccc1)N1CCN(c2ncnc3nc[nH]c23)CC1 [Compound 3, N-Benzyl-4-(6-purinyl)-1-piperazinethiocarboxamide] | –
244 to 258 °C | Nc1nc(N2CCN(C(=O)Nc3ccc(Oc4ccccc4)cc3)CC2)c2[nH]cnc2n1 [Compound 5, 4-(2-Amino-6-purinyl)-N-(4-phenoxyphenyl)-1-piperazinecarboxamide] | –
168 to 169 °C | Cn1cnc2c(N3CCN(C(=O)Nc4ccc(Oc5ccccc5)cc4)CC3)ncnc21 | –
155 to 156 °C | Cn1ncc2c(N3CCN(C(=O)Nc4ccc(Oc5ccccc5)cc4)CC3)ncnc21 | –
250 to 251 °C | O=C(Nc1ccc(Oc2ccccc2)cc1)N1CCN(c2ncnc3nc[nH]c23)CC1 [Compound 1, N-(4-Phenoxyphenyl)-4-(6-purinyl)-1-piperazinecarboxamide] | –

Continued, compound first:

SMILES | melting point | further results
COc1ccc(CNC(=C(C#N)C#N)N2CCN(c3ncnc4cc(OC)c(OC)cc34)CC2)cc1 [Compound 53, 4-{4-[2,2-Dicyano-1-(4-methoxybenzylamino)vinyl]-1-piperazinyl}-6,7-dimethoxyquinazoline] | – | inhibition at 10 µM [1]: 87%
COc1cc2ncnc(N3CCN(C(=NC#N)Oc4ccccc4)CC3)c2cc1OC [Compound 67, N-Cyano-4-(6,7-dimethoxy-4-quinazolinyl)-1-piperazinecarboximidic acid phenyl ester] | – | inhibition at 10 µM [1]: 95%
Cl.Cl.S=C(NCc1cccnc1)N1CCN(c2ncnc3c2cnn3-c2ccccc2)CC1 | 160 to 163 °C | –
Cn1ncc2c(N3CCN(C(=S)NCc4cccnc4)CC3)ncnc21 | 210 to 211 °C | –
COc1cc2ncnc(N3CCN(C(=NC#N)NCc4ccc5c(c4)OCO5)CC3)c2cc1OC [Compound 41, N′-Cyano-4-(6,7-dimethoxy-4-quinazolinyl)-N-(3,4-methylenedioxybenzyl)-1-piperazinecarboxamidine] | – | IC50 [1]: 190 nM
Cl.Cl.Nc1nc(N2CCN(C(=S)NCc3cccnc3)CC2)c2[nH]cnc2n1 | 180 to 185 °C (dec.) | –
COc1cc2ncnc(N3CCN(C(SC)=C(C#N)C#N)CC3)c2cc1OC [Compound 64, 4-[4-(2,2-Dicyano-1-methylthiovinyl)-1-piperazinyl]-6,7-dimethoxyquinazoline] | – | inhibition at 10 µM [1]: 82%
O=C(Nc1ccc(Oc2ccccc2)cc1)N1CCN(c2ncnc3cnc(F)cc23)CC1 [Compound 22, N-(4-Phenoxyphenyl)-4-(6-fluoro-4-pyrido[3,4-d]pyrimidinyl)-1-piperazinecarboxamide] | – | inhibition at 10 µM [1]: 66%
COc1cc2ncnc(N3CCN(C(=NC#N)NCc4ccc(Cl)cc4)CC3)c2cc1OC [Compound 31, N-(4-Chlorobenzyl)-N′-cyano-4-(6,7-dimethoxy-4-quinazolinyl)-1-piperazinecarboxamidine] | – | IC50 [1]: 380 nM
O=C(Nc1ccc([N+](=O)[O-])cc1)N1CCN(c2ncnc3nc[nH]c23)CC1 | 270 to 275 °C (dec.) | –
Nc1nc(N2CCN(C(=O)Nc3ccc([N+](=O)[O-])cc3)CC2)c2[nH]cnc2n1 | 208 to 214 °C | –
S=C(NCc1ccccc1)N1CCN(c2ncnc3ncccc23)CC1 [Compound 21, N-Benzyl-4-(4-pyrido[2,3-d]pyrimidinyl)-1-piperazinethiocarboxamide] | 169 to 170 °C | –
Cl.Cl.S=C(NCc1cccnc1)N1CCN(c2ncnc3nc[nH]c23)CC1 | 178 to 185 °C | –
Cn1ncc2c(N3CCN(C(=S)NCc4ccccc4)CC3)ncnc21 | 175 to 176 °C | –
COc1cc2ncnc(N3CCN(C(NCc4cccc(Cl)c4)=C(C#N)C#N)CC3)c2cc1OC [Compound 51, 4-{4-[1-(3-Chlorobenzylamino)-2,2-dicyanovinyl]-1-piperazinyl}-6,7-dimethoxyquinazoline] | – | inhibition at 10 µM [1]: 82%
